Laboratory results from US11028090B2 (Dong Wha Pharm. Co., Ltd., priority 2017, dated 2021).
Read-outs that look alike come from different tables or passages of the source.

Legend:
[1] = test system: acute myelogenous leukemia cells (MV-4-11 cells)
Experimental: (§1) The following experiment was performed to evaluate the cytotoxicity of [1,2,4]triazolo[4,3-a]quinoxaline derivative according to the present invention to acute myelogenous leukemia cells (MV-4-11 cells).
(§2) Acute myelogenous leukemia cells (MV-4-11 cells) were distributed in a 96 well plate at the density of 5×10^3 cells/well. The plated cells were treated with the compounds of the present invention dissolved in DMSO at the different concentrations ranging from 0.01 μM to 10 μM. 72 hours later, the activities of the compounds were determined using CCK-8 reagent.

[2] = biological target: BRD4 (BD1+BD2) bromodomain (Homo sapiens (Human), UniProt O60885); experiment: BRD4 binding inhibition (AlphaScreen, GST-BRD4 vs tetraacetylated histone H4 peptide)
Procedure, shortened: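 AlphaScreen read after 30 min dark incubation at room temperature with glutathione acceptor/streptavidin donor beads (10 μg/ml each). The beads were added to compound plus 100 nM biotin-H4 (K5,8,12,16-acetyl) peptide and 100 nM GST-BRD4 BD1+BD2 in pH 7.4 HEPES/Tween/BSA/DTT buffer.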

[3] = test system: thymus cancer cells (Ty-82 cells); experiment: Cytotoxicity to thymus cancer cells (Ty-82 cells), WST-1; details: Homo sapiens, TY82, 72 h
Experimental: The following experiment was performed to evaluate the cytotoxicity of [1,2,4]triazolo[4,3-a]quinoxaline derivative according to the present invention to thymus cancer cells (Ty-82 cells).
First, thymus cancer cells (Ty-82 cells) were distributed in a 96 well plate at the density of 2.5×10^4 cells/well. 24 hours later, the plated cells were treated with the compounds of the present invention dissolved in DMSO at the different concentrations ranging from 0.01 μM to 10 μM. 72 hours later, the activities of the compounds were determined using WST-1 reagent.

[4] = test system: acute myelogenous leukemia cells (MV-4-11 cells); experiment: Cytotoxicity to acute myelogenous leukemia cells (MV-4-11 cells), CCK-8; details: Homo sapiens, MV4-11, 72 h
Experimental: as §1, §2

[5] = GST-BRD4 (BD1+BD2) / biotinylated acetyl-histone H4 (Lys5,8,12,16) peptide, read-out: IC50, BRD4 binding inhibition
[6] = GST-BRD4 (BD1+BD2) vs biotinylated acetyl-histone H4 peptide, AlphaScreen, read-out: BRD4 IC50
[7] = read-out: Ty-82 Cytotoxicity IC50
[8] = read-out: MV-4-11 Cytotoxicity IC50
[9] = read-out: IC50, cytotoxicity against thymus cancer cells
[10] = read-out: IC50, cytotoxicity against acute myelogenous leukemia cells

## Cc1nnc2c(NCCCCNC(=O)[C@@H](O)C(C)C)nc3cc(N4CCSCC4)ccc3n12 [Example 525, N-[4-(7-thiomorphonyl-4-yl-1-methyl-[1,2,4]triazolo[4,3-a]quinoxaline-4-ylamino)-butyl]-2-(S)-hydroxy-3-methyl-butyramide]
[1]
  IC50: 200 nM
[2]; [5]
  IC50: ≤ 50 nM
[2]; [6]
  IC50: 11 nM

## CCc1nnc2c(NCCCCNC(=O)CC(C)C)nc3cc(OC)ccc3n12 [Example 622, [4-(7-methoxy-1-ethyl-[1,2,4]triazolo[4,3-a]quinoxaline-4-ylamino)-butyl]-3-methyl-butyramide]
[1]
  IC50: 290 nM
[2]; [5]
  IC50: ≤ 50 nM
[2]; [6]
  IC50: 20 nM

## COCCOc1cc2nc(NCCCCNC(=O)CC(C)(C)C)c3nnc(C)n3c2cc1OCCOC [Example 167, N-{4-[7,8-bis-(2-methoxy-ethoxy)-1-methyl-[1,2,4]triazolo[4,3-a]quinoxaline-4-ylamino]-butyl}-3,3-dimethyl-butyramide]
[3]; [7]
  IC50: 880 nM
[4]; [8]
  IC50: 510 nM
[2]; [5]
  IC50: ≤ 50 nM
[2]; [6]
  IC50: 40 nM

## COc1cc2nc(NCCCCNC(=O)Oc3ccccc3)c3nnc(C)n3c2cc1OC [Example 67, [4-(7,8-dimethoxy-1-methyl-[1,2,4]triazolo[4,3-a]quinoxaline-4-ylamino)-butyl]-carbamic acid phenylester]
[3]; [9]
  IC50: ≤ 500 nM
[3]; [7]
  IC50: 170 nM
[4]; [10]
  IC50: ≤ 200 nM
[4]; [8]
  IC50: 140 nM
[2]; [6]
  IC50: 19 nM
[2]; IC50, BRD4 binding inhibition, GST-BRD4 (BD1+BD2) / biotinylated acetyl-histone H4 (Lys5,8,12,16) peptide
  IC50: ≤ 50 nM

## COCCOc1cc2nc(NCCCCNC(=O)OCC(C)C)c3nnc(C)n3c2cc1OCCOC [Example 168, {4-[7,8-bis-(2-methoxy-ethoxy)-1-methyl-[1,2,4]triazolo[4,3-a]quinoxaline-4-ylamino]-butyl}-carbamic acid isobutylester]
[3]; [7]
  IC50: 600 nM
[4]; [10]
  IC50: ≤ 200 nM
[4]; [8]
  IC50: 90 nM
[2]; [5]
  IC50: ≤ 50 nM
[2]; [6]
  IC50: 16 nM

## COc1cc2nc(NCCCCNC(=O)c3ccccc3Cl)c3nnc(C)n3c2cc1OC [Example 99, 2-chloro-N-[4-(7,8-dimethoxy-1-methyl-[1,2,4]triazolo[4,3-a]quinoxaline-4-ylamino)-butyl]-benzamide]
[3]; [7]
  IC50: 550 nM
[4]; [8]
  IC50: 230 nM
[2]; [5]
  IC50: ≤ 50 nM
[2]; [6]
  IC50: 21 nM

## Cc1nnc2c(NCCCCNC(=O)OC3CCCC3)nc3cc4c(cc3n12)OCCO4 [Example 190, [4-(1-methyl-8,9-dihydro-7,10-dioxa-2,3,5,11b-tetraaza-cyclopenta[a]anthracene-4-ylamino)-butyl]-carbamic acid cyclopentylester]
[3]; [7]
  IC50: 650 nM
[4]; [10]
  IC50: ≤ 200 nM
[4]; [8]
  IC50: 90 nM
[2]; [5]
  IC50: ≤ 50 nM
[2]; [6]
  IC50: 28 nM

## Cc1nnc2c(NCCCCOC(=O)CC(C)(C)C)nc3ccccc3n12 [Example 633]
[3]; [7]
  IC50: 900 nM
[4]; [8]
  IC50: 750 nM
[2]; [5]
  IC50: ≤ 50 nM
[2]; [6]
  IC50: 24 nM

## COc1cc2nc(NCCCCNC(=O)NC3CCCCC3)c3nnc(C)n3c2cc1OC [Example 93, 1-cyclohexyl-3-[4-(7,8-dimethoxy-1-methyl-[1,2,4]triazolo[4,3-a]quinoxaline-4-ylamino)-butyl]-urea]
[3]; [7]
  IC50: 560 nM
[4]; [8]
  IC50: 340 nM
[2]; [5]
  IC50: ≤ 50 nM
[2]; [6]
  IC50: 39 nM

## COc1cc2nc(NCCCCNC(=O)c3cccc(Cl)c3Cl)c3nnc(C)n3c2cc1OC [Example 102, 2,3-dichloro-N-[4-(7,8-dimethoxy-1-methyl-[1,2,4]triazolo[4,3-a]quinoxaline-4-ylamino)-butyl]-benzamide]
[3]; [7]
  IC50: 840 nM
[4]; [8]
  IC50: 360 nM
[2]; [5]
  IC50: ≤ 50 nM

## COc1cc2nc(NCCCCNC(=O)OCC(C)C)c3nnc(C)n3c2cc1C [Example 468, [4-(7-methoxy-1,8-dimethyl-[1,2,4]triazolo[4,3-a]quinoxaline-4-ylamino)-butyl]-carbamic acid isobutylester]
[3]; [9]
  IC50: ≤ 500 nM
[3]; [7]
  IC50: 230 nM
[4]; [10]
  IC50: ≤ 200 nM
[4]; [8]
  IC50: 73 nM
[2]; [5]
  IC50: ≤ 50 nM
[2]; [6]
  IC50: 22 nM

## COc1ccc2c(c1)nc(NCCCCNC(=O)CC(C)C)c1nnc(C)n12 [Example 285, N-[4-(7-methoxy-1-methyl-[1,2,4]triazolo[4,3-a]quinoxaline-4-ylamino)-butyl]-3-methyl-butyramide]
[3]; [9]
  IC50: ≤ 500 nM
[3]; [7]
  IC50: 91 nM
[4]; [10]
  IC50: ≤ 200 nM
[4]; [8]
  IC50: 10 nM
[2]; [5]
  IC50: ≤ 50 nM
[2]; [6]
  IC50: 17 nM

## Cc1nnc2c(NCCCCNC(=O)CC(C)C)nc3cc4c(cc3n12)OCCO4 [Example 181, 3-methyl-N-[4-(1-methyl-8,9-dihydro-7,10-dioxa-2,3,5,11b-tetraaza-cyclopenta[a]anthracene-4-ylamino)-butyl]-butyramide]
[3]; [9]
  IC50: ≤ 500 nM
[3]; [7]
  IC50: 300 nM
[4]; [10]
  IC50: ≤ 200 nM
[4]; [8]
  IC50: 50 nM
[2]; [5]
  IC50: ≤ 50 nM
[2]; [6]
  IC50: 17 nM

## COc1ccc2nc(NCCCCNC(=O)CC(C)(C)C)c3nnc(C)n3c2c1 [Example 124, [4-(8-methoxy-1-methyl-[1,2,4]triazolo[4,3-a]quinoxaline-4-ylamino)-butyl]-3,3-dimethyl-butyramide]
[1]
  IC50: 700 nM
[2]; [5]
  IC50: ≤ 50 nM
[2]; [6]
  IC50: 29 nM
